Consider 20 molecules from US9624241B2 (Incyte Corporation, priority 2013, dated 2017).

Experiment [1] concerns the target BRD4-BD1 (Homo sapiens (Human), UniProt O60885). Briefly: BRD4 AlphaScreen Assay (Example A2), BRD4-BD1. The note with it: Assay A2, AlphaScreen, BRD4-BD1; read-out: BRD4 BD-1 enzyme IC50. Format: binding. Put shortly:
(§1)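 Displacement of 50 nM biotinylated tetra-acetylated histone H4 peptide from BRD4 BD1 or BD2 (<1 nM) in Tris-HCl pH 7.5 buffer with DTT. Inhibitors serially diluted in DMSO, added first, then incubated 75 min in the dark at room temperature before AlphaScreen read. IC50 fitted from percent control activity versus log concentration.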
Background: In Alpha technology, singlet oxygen from a donor bead excites a nearby acceptor bead.

Experiment [2] has as its target BRD4-BD2 (Homo sapiens (Human), UniProt O60885). Briefly: BRD4 AlphaScreen Assay (Example A2), BRD4-BD2. Format: binding. The note with it: read-out: BRD4 BD-2 enzyme IC50. Put shortly:
as §1

The mark [3] stands for this setting: Assay A2, AlphaScreen, BRD4-BD2.

Read-outs that look alike come from different tables or passages of the source. Bounds are passed on as bounds.

For the molecule `Cc1noc(C)c1-c1cc(F)c2nc(N3CCC(O)C3)n3c2c1OCC3c1cccnc1` (stereo not shown) [Example 157, 1-[7-(3,5-Dimethylisoxazol-4-yl)-9-fluoro-4-pyridin-3-yl-4,5-dihydroimidazo[1,5,4-de][1,4]benzoxazin-2-yl]pyrrolidin-3-ol], the half-maximal inhibitory concentration (IC50) in experiment [1] and in experiment [2] (setting [3]) was below 100 nM in each case.

As to `CCNc1nc2c(F)cc(-c3c(C)noc3C)c3c2n1C(c1cccnc1)CO3` (stereo not shown) [Example 158, 7-(3,5-Dimethylisoxazol-4-yl)-N-ethyl-9-fluoro-4-pyridin-3-yl-4,5-dihydroimidazo[1,5,4-de][1,4]benzoxazin-2-amine], the IC50 in experiment [1] and in experiment [2] (setting [3]) was below 100 nM each time.

With `Cc1noc(C)c1-c1ccc2nc(N(C)CCO)n3c2c1OCC3c1ccccn1` (stereo not shown) [Example 185, 2-[[7-(3,5-dimethylisoxazol-4-yl)-4-pyridin-2-yl-4,5-dihydroimidazo[1,5,4-de][1,4]benzoxazin-2-yl](methyl)amino]ethanol], the values for the IC50 in experiment [1] and in experiment [2] were 100 to 1000 nM and below 100 nM, respectively.

Take `Cc1noc(C)c1-c1ccc2nc(N3CC(NC(=O)OC(C)(C)C)C3)n3c2c1OC[C@@H]3c1ccccn1` [Example 196, tert-butyl {1-[(4S)-7-(3,5-dimethylisoxazol-4-yl)-4-pyridin-2-yl-4,5-dihydroimidazo[1,5,4-de][1,4]benzoxazin-2-yl]azetidin-3-yl}carbamate]: the concentration for half-maximal inhibition (IC50) in experiment [1] and in experiment [2] (setting [3]) was below 100 nM throughout.

With `Cc1noc(C)c1-c1ccc2nc(N3CC(NC(=O)C(C)C)C3)n3c2c1OC[C@@H]3c1ccccn1` [Example 233, N-{1-[(4S)-7-(3,5-dimethylisoxazol-4-yl)-4-pyridin-2-yl-4,5-dihydroimidazo[1,5,4-de][1,4]benzoxazin-2-yl]azetidin-3-yl}-2-methylpropanamide], the IC50 in experiment [1] and in experiment [2] (setting [3]) was below 100 nM each time.

As for `CCS(=O)(=O)NC1CN(c2nc3ccc(-c4c(C)noc4C)c4c3n2[C@@H](c2ccccn2)CO4)C1` [Example 238, N-{1-[(4S)-7-(3,5-dimethylisoxazol-4-yl)-4-pyridin-2-yl-4,5-dihydroimidazo[1,5,4-de][1,4]benzoxazin-2-yl]azetidin-3-yl}ethanesulfonamide], the IC50 in experiment [1] and in experiment [2] (setting [3]) was below 100 nM throughout.

Consider `Cc1noc(C)c1-c1c(Cl)c(Cl)c2[nH]c(=O)n3c2c1OC[C@@H]3c1ccccn1` [Example 252, (4S)-8,9-dichloro-7-(3,5-dimethylisoxazol-4-yl)-4-pyridin-2-yl-4,5-dihydroimidazo[1,5,4-de][1,4]benzoxazin-2(1H)-one bistrifluoroacetate], for which the half-maximal inhibitory concentration (IC50) in experiment [1] and in experiment [2] (setting [3]) was 100 to 1000 nM in each case.

Regarding `Cc1noc(C)c1-c1cc(CNC(C)C)c2[nH]c(=O)n3c2c1OCC3c1ccccn1` (stereo not shown) [Example 253, 7-(3,5-Dimethylisoxazol-4-yl)-9-[(isopropylamino)methyl]-4-pyridin-2-yl-4,5-dihydroimidazo[1,5,4-de][1,4]benzoxazin-2(1H)-one], the IC50 in experiment [1] and in experiment [2] (setting [3]) was 100 to 1000 nM throughout.

For the molecule `Cc1noc(C)c1-c1cc(CO)c2[nH]c(=O)n3c2c1OCC3c1ccccn1` (stereo not shown) [Example 254, 7-(3,5-Dimethylisoxazol-4-yl)-9-(hydroxymethyl)-4-pyridin-2-yl-4,5-dihydroimidazo[1,5,4-de][1,4]benzoxazin-2(1H)-one], the half-inhibitory concentration (IC50) in experiment [1] and in experiment [2] (setting [3]) was below 100 nM in each case.

As to `Cc1noc(C)c1-c1ccc2[nH]c(=S)n3c2c1OCC3c1ccccn1` (stereo not shown) [Example 255, 7-(3,5-Dimethylisoxazol-4-yl)-4-pyridin-2-yl-4,5-dihydroimidazo[1,5,4-de][1,4]benzoxazine-2(1H)-thione], the IC50 in experiment [1] and in experiment [2] (setting [3]) was below 100 nM in each case.

As for `Cc1noc(C)c1-c1cc(-c2cn[nH]c2C)c2[nH]c(=O)n3c2c1OCC3c1ccccn1` (stereo not shown) [Example 257, 7-(3,5-dimethylisoxazol-4-yl)-9-(3-methyl-1H-pyrazol-4-yl)-4-pyridin-2-yl-4,5-dihydroimidazo[1,5,4-de][1,4]benzoxazin-2(1H)-one], the half-maximal inhibitory concentration (IC50) (as a rule, the concentration needed to halve the response being measured) in experiment [1] was 100 to 1000 nM; in experiment [2] (setting [3]) it was below 100 nM.

Turning to `Cc1n[nH]c(C)c1-c1cc(-c2c(C)noc2C)c2c3c1[nH]c(=O)n3C(c1ccccn1)CO2` (stereo not shown) [Example 258, 7-(3,5-dimethylisoxazol-4-yl)-9-(3,5-dimethyl-1H-pyrazol-4-yl)-4-pyridin-2-yl-4,5-dihydroimidazo[1,5,4-de][1,4]benzoxazin-2(1H)-one], the IC50 in experiment [1] was 1000 to 10000 nM; in experiment [2] (setting [3]), 100 to 1000 nM.

Consider `Cc1noc(C)c1-c1cc(-c2ccc(O)nc2)c2[nH]c(=O)n3c2c1OC[C@@H]3c1ccccn1` [Example 259, (4S)-7-(3,5-dimethylisoxazol-4-yl)-9-(6-hydroxypyridin-3-yl)-4-pyridin-2-yl-4,5-dihydroimidazo[1,5,4-de][1,4]benzoxazin-2(1H)-one], for which the 50% inhibitory concentration (IC50) in experiment [1] was 100 to 1000 nM; in experiment [2] (setting [3]) it was below 100 nM.

In the case of `Cc1noc(C)c1-c1cc(-c2ccnc(O)c2)c2[nH]c(=O)n3c2c1OC[C@@H]3c1ccccn1` [Example 260, (4S)-7-(3,5-dimethylisoxazol-4-yl)-9-(2-hydroxypyridin-4-yl)-4-pyridin-2-yl-4,5-dihydroimidazo[1,5,4-de][1,4]benzoxazin-2(1H)-one], the figures for the IC50 in experiment [1] and in experiment [2] (setting [3]) were 100 to 1000 nM and below 100 nM, respectively.

For the molecule `Cc1noc(C)c1-c1cc(-c2cccnc2O)c2[nH]c(=O)n3c2c1OC[C@@H]3c1ccccn1` [Example 261, (4S)-7-(3,5-dimethylisoxazol-4-yl)-9-(2-hydroxypyridin-3-yl)-4-pyridin-2-yl-4,5-dihydroimidazo[1,5,4-de][1,4]benzoxazin-2(1H)-one], the concentration for half-maximal inhibition (IC50) in experiment [1] is 100 to 1000 nM; in experiment [2] (setting [3]), below 100 nM.

For the molecule `Cc1noc(C)c1-c1cc(CNc2ccccc2)c2[nH]c(=O)n3c2c1OCC3c1ccccn1` (stereo not shown) [Example 262, 9-(anilinomethyl)-7-(3,5-dimethylisoxazol-4-yl)-4-pyridin-2-yl-4,5-dihydroimidazo[1,5,4-de][1,4]benzoxazin-2(1H)-one], the IC50 in experiment [1] was 1000 to 10000 nM; in experiment [2] (setting [3]), below 100 nM.

Take `COc1ccc(CNCc2cc(-c3c(C)noc3C)c3c4c2[nH]c(=O)n4C(c2ccccn2)CO3)cc1` (stereo not shown) [Example 263, 7-(3,5-dimethylisoxazol-4-yl)-9-{[(4-methoxybenzyl)amino]methyl}-4-pyridin-2-yl-4,5-dihydroimidazo[1,5,4-de][1,4]benzoxazin-2(1H)-one]: the half-maximal inhibitory concentration (IC50) is 100 to 1000 nM in experiment [1] and below 100 nM in experiment [2] (setting [3]).

With `Cc1noc(C)c1-c1cc(F)c2[nH]c(=O)n3c2c1OCC3c1ccccn1` (stereo not shown) [Example 265A, 7-(3,5-dimethylisoxazol-4-yl)-9-fluoro-4-pyridin-2-yl-4,5-dihydroimidazo[1,5,4-de][1,4]benzoxazin-2(1H)-one], the half-maximal inhibitory concentration (IC50) in experiment [1] and in experiment [2] (setting [3]) was 1000 to 10000 nM each time.

With `Cc1noc(C)c1-c1cc(F)c2[nH]c(=O)n3c2c1OCC3c1ccccn1` (stereo not shown) [Example 265B, 7-(3,5-dimethylisoxazol-4-yl)-9-fluoro-4-pyridin-2-yl-4,5-dihydroimidazo[1,5,4-de][1,4]benzoxazin-2(1H)-one], the IC50 in experiment [1] and in experiment [2] (setting [3]) was below 100 nM each time.

As to `Cc1noc(C)c1-c1cc(C)c2[nH]c(=O)n3c2c1OCC3c1ccccn1` (stereo not shown) [Example 268, 7-(3,5-dimethylisoxazol-4-yl)-9-methyl-4-pyridin-2-yl-4,5-dihydroimidazo[1,5,4-de][1,4]benzoxazin-2(1H)-one], the figures for the half-maximal inhibitory concentration (IC50) in experiment [1] and in experiment [2] (setting [3]) were 1000 to 10000 nM and 100 to 1000 nM, respectively.
